Test results: patent US20080081781A1, “Methods and compositions for the treatment of metabolic syndrome” (priority 2004, published 2008)
Like-named read-outs stand apart in the source and are kept apart here.

Tests used:
[1] = tested on: patients with type 2 diabetes; type: in vivo, human
From the text: Ninety-seven hyperglycemic patients (54 males and 43 females) with fasting blood glucose>7 mmol/L and post-prandial blood glucose>11.1 mmol/L were enrolled in a study at the Nanjing First Hospital in Nanjing, China. The patients were asked to end any current treatments for hyperglycemia at least 2 weeks prior to commencement of the study.
Fifty of the patients (male/female, 27/23; age 57±8y) were randomly assigned to be given 0.5 gram twice a day (1g/day total) of berberine (Nanjing Second Pharmaceutics, Inc., Nanjing, China), orally for 2 months. Out of these 50 patients, 25 had hyperlipidemia, 9 had hypertension and 2 had cardiovascular disease. Twenty-six patients (male/female, 15/11; age 56±11 y) were given 1.5 grams of metformin (Double-Crane Pharmaceutical, Inc., Beijing, China) per day, orally for two months. Of these twenty-six patients, 11 had hyperlipidemia, and four had hypertension. The remaining twenty-one patients (male/female, 11/10, age 49±10 y) were given 4 mg per day of rosiglitazone (Glaxowelcome, UK), orally for two months. Of these 21 patients, ten had hyperlipidemia and four had hypertension. Metformin and rosiglitazone served as reference controls as they are standard treatments for type 2 diabetes.
Blood samples were taken prior to the commencement of therapy and after completion of the therapy.

[2] = Toxicity analysis (LD50) in mice; conditions: mouse, in vivo
Experimental: Rats and mice were administered berberine through a variety of techniques, including orally, through subcutaneous injection, peritoneal injection and intravenous injection.

[3] = tested on: rats; conditions: rat, in vivo
[4] = tested on: InsR; experiment: InsR expression in Bel-7402 cells; type: cell-based, human; conditions: Bel-7402 compared with HepG2
From the text: The effect of berberine on InsR was further confirmed in another hepatoma cell line, Bel-7402 […] (FIG. 18). […] The expression of PPAR-r mRNA in liver cells was not changed by berberine (data not shown).

[5] = tested on: hyperlipidemia Chinese hamster; experiment: Lipid lowering effects of berberine in hyperlipidemia Chinese hamster; type: in vivo; conditions: for LDL reduced by: after the 10 day treatment; for LDL Protein / Triglycerides / Cholesterol: serum, ten days; for LDL Protein: saline control 2.8 ± 0.9; for Triglycerides: saline control 3.6 ± 0.4; for Cholesterol: saline control 6.4 ± 1.0
Experimental: Two weeks prior to treatment, female Chinese hamsters purchased from the National Institute of Vaccine and Serum research (Beijing, China) were switched to a high fat and cholesterol diet (10% lard, 10% egg yolk powder and 1% cholesterol). After two weeks, groups of 14 hamsters were given either 10 mg/kg/day of berberine through peritoneal injection, 20 mg/kg/day of berberine through peritoneal injection, 50 mg/kg/day, 100 mg/kg/day of berberine orally or saline for ten days. Serum cholesterol, triglyceride and LDL levels were measured after 4 h fasting before, during and after the course of the treatment. Four hours after the course of the treatment, the animals were sacrificed and their livers removed for analysis.

[6] = tested on: ERK; experiment: ERK activation in HepG2 or Bel-7402 cells (western blotting, phosphorylated ERK); type: cell-based, human; conditions: both hepatoma cell lines HepG2 and Bel-7402; 0.25-24 hours
Experimental: HepG2 or Bel-7402 cells were treated with berberine for 0.25, 0.5, 0.75, 1, 2, 8, and 24 hours respectively and tested for levels of activated ERK by western blotting using antibodies that only recognize the activated (phosphorylated) ERK. […] The activation of berberine is also dose dependent (FIG. 14C).

[7] = tested on: InsR mRNA; experiment: Rat liver InsR and LDLR mRNA (quantitative real time RT-PCR); type: in vivo; conditions: rats, 14 days
Experimental: The livers were dissected and stored in liquid nitrogen for RNA extraction, real-time RT-PCR and PKC activity assay. Total blood samples were also collected to assay fasting blood glucose and serum insulin levels. The insulin levels were analyzed using radio-immunoassay (Linco Research, St Charles, Mo.). The insulin sensitivity indexes (ISI) were calculated according to the formula: 10^4/(fasting serum insulin X fasting blood glucose) (Hanson, Am. J. Epidemiol. 15 1(2), 190-198 (2000)). The insulin level and ISI of normal rats were also determined for comparison. […] It also elevated the fasting blood glucose from 7 to 12.8 mmol/L (P<0.001).
Liver mRNA extracts were used for quantitative real time RT-PCR assay. Total cellular RNA was reverse-transcribed into cDNA using the Reverse Transcription System (Promega, Madison, Wis.). Quantitative real-time PCR were performed with these cDNA using the Applied Biosystems 7500 Real-Time PCR System and TaqMan® Universal PCR Master Mix (Applied Biosystems, Foster City, Calif.). […] 2.5 μl of cDNA sample, 12.5 μl of Universal PCR Master Mix, and 1.25 μl of TaqMan® Gene Expression Assay reagent were mixed in a 25 μl reaction system, and the comparative CT method was used in relative gene quantification using the TaqMan® SDS analysis software. […]

[8] = in vitro; type: in vitro ADME; conditions: rabbit
Experimental: The rabbit blood protein binding rate was measured by in vitro dialysis at a rate of 38±3% (XD±S, n=6).

[9] = patients with type 2 diabetes, After treatment (2 months), oral: berberine 1 g/day, metformin 1.5 g/day, rosiglitazone 4 mg/day, Mean ± SE
[10] = patients with type 2 diabetes, Before treatment (baseline), Mean ± SE
[11] = type 2 diabetes patients, 1 g/day orally, 2 months
[12] = 10 mg/kg/day peritoneal injection
[13] = 20 mg/kg/day peritoneal injection

Compound: COc1ccc2cc3[n+](cc2c1OC)CCc1cc2c(cc1-3)OCO2 [berberine]
- serum insulin levels ([1]; after treatment, normal range 2.5-13 mlU/L): decreased into the normal range
- ALT after treatment ([1]; human, in vivo): 23±16
- BUN after treatment ([1]; human, in vivo): 5.7±1.2
- Cr after treatment ([1]; human, in vivo): 71±14
- r-GT after treatment ([1]; human, in vivo): 31±23
- HbA1c [1, 9]: 6.8 ± 0.2 %
- Triglyceride [1, 9]: 1.4 ± 0.1 mmol/L
- FBG (fasting blood glucose) [1, 10]: 10.4 ± 0.4 mmol/L
- HbA1c [1, 10]: 8.0 ± 0.3%
- Triglyceride [1, 10]: 1.7 ± 0.1 mmol/L
- reduction of serum cholesterol ([1]; type 2 diabetes patients of berberine group (50% also had hyperlipidemia)): 24%
- lowering of fasting blood glucose [1, 11]: 26%
- lowering of hemoglobin A1c (HbA1c) [1, 11]: 18%
- lowering of triglycerides [1, 11]: 18%
- LD50 ([2]; intraperitoneal, peritoneal injection): 30 to 32.2 mg/kg
- LD50 ([2]; intravenous injection): 7.6 to 10.2 mg/kg
- LD50 ([2]; sc, subcutaneous injection): 13.9 to 20 mg/kg
- birth defects [3]: No birth defects were evident
- InsR expression [4]: identical upregulating effect
- LDL reduced by ([5]; 50 mg/kg/day): 26%
- LDL reduced by ([5]; 100 mg/kg/day): 42%
- LDL Protein [5, 12]: 1.6 ± 0.3
- Triglycerides [5, 12]: 2.6 ± 0.3
- Cholesterol [5, 12]: 4.1 ± 0.7
- LDL Protein [5, 13]: 0.9 ± 0.1
- Triglycerides [5, 13]: 1.7 ± 0.5
- Cholesterol [5, 13]: 3.2 ± 0.5
- LDL Protein ([5]; 50 mg/kg/day (orally)): 2.07 ± 0.9
- Cholesterol ([5]; 50 mg/kg/day (orally)): 3.5 ± 0.5
- LDL Protein ([5]; 100 mg/kg/day oral): 1.2 ± 0.2
- Triglycerides ([5]; 100 mg/kg/day oral): 1.9 ± 0.4
- Cholesterol ([5]; 100 mg/kg/day oral): 3.8 ± 0.7
- ERK activation (phosphorylated ERK) [6]: rapidly activated ERK
- increase in InsR mRNA in the livers ([7]; 75 mg/kg/day): 1.8 fold
- increase in InsR mRNA in the livers ([7]; 150 mg/kg/day): 2.3 fold
- fraction unbound [8]: 0.62
